{
  "source": "patent US20260262643A1",
  "about": "“HERBICIDAL BENZOXAZINES” (FMC CORPORATION, priority 2022, published 2026)",
  "key": {"ragweed [1]": {"test_system": "ragweed", "assay": "Test A postemergence", "assay_type": "in vivo, Ambrosia artemisiifolia", "conditions": "postemergence, 10 days", "procedure,_shortened": "(§1)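 Seeds in loam–sand blend received a directed preemergence soil spray of compound in non-phytotoxic solvent with surfactant; postemergence plants (2–10 cm, one- to two-leaf stage) were sprayed with the same formulation. After 10 days in greenhouse, injury was rated visually versus untreated controls, 0 (no effect) to 100 (complete control).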"}, "blackgrass [2]": {"test_system": "blackgrass", "assay": "Test A preemergence", "assay_type": "in vivo, Alopecurus myosuroides", "procedure,_shortened": "as §1"}, "foxtail, giant [3]": {"test_system": "foxtail, giant", "assay": "Test A postemergence", "assay_type": "in vivo, Setaria faberi", "conditions": "postemergence, 10 days", "procedure,_shortened": "as §1"}, "corn [4]": {"test_system": "corn", "assay": "Test A postemergence", "assay_type": "in vivo, Zea mays", "conditions": "postemergence, 10 days", "procedure,_shortened": "as §1"}, "oat, wild [5]": {"test_system": "oat, wild", "assay": "Test A postemergence", "assay_type": "in vivo, Avena fatua", "conditions": "postemergence, 10 days", "procedure,_shortened": "as §1"}, "soybean [6]": {"test_system": "soybean", "assay": "Test A preemergence", "assay_type": "in vivo, Glycine max", "procedure,_shortened": "as §1"}, "soybean [7]": {"test_system": "soybean", "assay": "Test A postemergence", "assay_type": "in vivo, Glycine max", "conditions": "postemergence, 10 days", "procedure,_shortened": "as §1"}, "wheat [8]": {"test_system": "wheat", "assay": "Test A preemergence", "assay_type": "in vivo, Triticum aestivum", "procedure,_shortened": "as §1"}, "ragweed [9]": {"test_system": "ragweed", "assay": "Test A preemergence", "assay_type": "in vivo, Ambrosia artemisiifolia", "procedure,_shortened": "as §1"}, "ryegrass, Italian [10]": {"test_system": "ryegrass, Italian", "assay": "Test A postemergence", "assay_type": "in vivo, Lolium multiflorum", "conditions": "postemergence, 10 days", "procedure,_shortened": "as §1"}, "sedge, umbrella": {"test_system": "sedge, umbrella", "assay": "Test B flooded paddy test", "assay_type": "in vivo, Cyperus difformis", "conditions": "250 g ai/ha, Flood, 13 days, 0 to 100 scale (0 no effect, 100 complete control)", "procedure,_shortened": "(§2)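 Flooded to 3 cm at treatment time, 2-leaf plants got the test compound applied straight into the paddy water. They then stayed under constant flood in a greenhouse for 13 days. Ratings used a 0 to 100 visual scale.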"}, "rice": {"test_system": "rice", "assay": "Test B flooded paddy test", "assay_type": "in vivo, Oryza sativa", "conditions": "250 g ai/ha, Flood, 13 days, 0 to 100 scale (0 no effect, 100 complete control)", "procedure,_shortened": "as §2"}, "blackgrass [11]": {"test_system": "blackgrass", "assay": "Test A postemergence", "assay_type": "in vivo, Alopecurus myosuroides", "conditions": "postemergence, 10 days", "procedure,_shortened": "as §1"}, "oat, wild [12]": {"test_system": "oat, wild", "assay": "Test A preemergence", "assay_type": "in vivo, Avena fatua", "procedure,_shortened": "as §1"}, "kochia [13]": {"test_system": "kochia", "assay": "Test A preemergence", "assay_type": "in vivo, Bassia scoparia", "procedure,_shortened": "as §1"}, "barnyardgrass": {"test_system": "barnyardgrass", "assay": "Test B flooded paddy test", "assay_type": "in vivo, Echinochloa crus-galli", "conditions": "250 g ai/ha, Flood, 13 days, 0 to 100 scale (0 no effect, 100 complete control)", "procedure,_shortened": "as §2"}, "horseweed": {"test_system": "horseweed", "assay": "Test A postemergence", "assay_type": "in vivo, Erigeron canadensis", "conditions": "postemergence, 10 days", "procedure,_shortened": "as §1"}, "foxtail, giant [14]": {"test_system": "foxtail, giant", "assay": "Test A preemergence", "assay_type": "in vivo, Setaria faberi", "procedure,_shortened": "as §1"}, "corn [15]": {"test_system": "corn", "assay": "Test A preemergence", "assay_type": "in vivo, Zea mays", "procedure,_shortened": "as §1"}, "kochia [16]": {"test_system": "kochia", "assay": "Test A postemergence", "assay_type": "in vivo, Bassia scoparia", "conditions": "postemergence, 10 days", "procedure,_shortened": "as §1"}, "pigweed, palmer [17]": {"test_system": "pigweed, palmer", "assay": "Test A postemergence", "assay_type": "in vivo, Amaranthus palmeri", "conditions": "postemergence, 10 days", "procedure,_shortened": "as §1"}, "wheat [18]": {"test_system": "wheat", "assay": "Test A postemergence", "assay_type": "in vivo, Triticum aestivum", "conditions": "postemergence, 10 days", "procedure,_shortened": "as §1"}, "goosegrass [19]": {"test_system": "goosegrass", "assay": "Test A postemergence", "assay_type": "in vivo, Eleusine indica", "conditions": "postemergence, 10 days", "procedure,_shortened": "as §1"}, "ryegrass, Italian [20]": {"test_system": "ryegrass, Italian", "assay": "Test A preemergence", "assay_type": "in vivo, Lolium multiflorum", "procedure,_shortened": "as §1"}, "goosegrass [21]": {"test_system": "goosegrass", "assay": "Test A preemergence", "assay_type": "in vivo, Eleusine indica", "procedure,_shortened": "as §1"}, "pigweed, palmer [22]": {"test_system": "pigweed, palmer", "assay": "Test A preemergence", "assay_type": "in vivo, Amaranthus palmeri", "procedure,_shortened": "as §1"}, "ducksalad": {"test_system": "ducksalad", "assay": "Test B flooded paddy test", "assay_type": "in vivo, Heteranthera limosa", "conditions": "250 g ai/ha, Flood, 13 days, 0 to 100 scale (0 no effect, 100 complete control)", "procedure,_shortened": "as §2"}, "[23]": {"conditions": "125 g ai/ha, 0 to 100 scale, 0 no effect, 100 complete control"}, "[24]": {"conditions": "500 g ai/ha, visual injury, 0 to 100 scale (0 no effect, 100 complete control)"}, "[25]": {"conditions": "125 g ai/ha, visual injury after 10 days, 0 to 100 scale, 0 is no effect, 100 is complete control"}, "[26]": {"conditions": "500 g ai/ha, 0 to 100 scale (0 no effect, 100 complete control), 10 days"}},
  "data": [
    {"smiles": "COc1ccc(-n2cnc(C(C)(C)C)n2)cc1C(=O)N1C[C@H](C)Oc2c(Cl)cccc21", "note": "[Compound 83]", "values": [
      {"measurement": "Ragweed plant response rating", "setting": "ragweed [1]; [23]", "value": 70},
      {"measurement": "Plant response rating, Ragweed", "setting": "ragweed [1]; [24]", "value": 100},
      {"measurement": "Plant response rating, Blackgrass", "setting": "blackgrass [2]; [25]", "value": 40},
      {"measurement": "Plant response rating, Blackgrass", "setting": "blackgrass [2]; [26]", "value": 50},
      {"measurement": "Foxtail, Giant plant response rating", "setting": "foxtail, giant [3]; [23]", "value": 20},
      {"measurement": "Plant response rating, Foxtail, Giant", "setting": "foxtail, giant [3]; [24]", "value": 90},
      {"measurement": "Corn plant response rating", "setting": "corn [4]; [23]", "value": 30},
      {"measurement": "Plant response rating, Corn", "setting": "corn [4]; [24]", "value": 50},
      {"measurement": "Oat, Wild plant response rating", "setting": "oat, wild [5]; [23]", "value": 20},
      {"measurement": "Plant response rating, Oat, Wild", "setting": "oat, wild [5]; [24]", "value": 70},
      {"measurement": "Plant response rating, Soybean", "setting": "soybean [6]; [25]", "value": 50},
      {"measurement": "Plant response rating, Soybean", "setting": "soybean [6]; [26]", "value": 100},
      {"measurement": "Soybean plant response rating", "setting": "soybean [7]; [23]", "value": 100},
      {"measurement": "Plant response rating, Soybean", "setting": "soybean [7]; [24]", "value": 100},
      {"measurement": "Plant response rating, Wheat", "setting": "wheat [8]; [25]", "value": 10},
      {"measurement": "Plant response rating, Wheat", "setting": "wheat [8]; [26]", "value": 90},
      {"measurement": "Plant response rating, Ragweed", "setting": "ragweed [9]; [25]", "value": 50},
      {"measurement": "Plant response rating, Ragweed", "setting": "ragweed [9]; [26]", "value": 90},
      {"measurement": "Ryegrass, Italian plant response rating", "setting": "ryegrass, Italian [10]; [23]", "value": 40},
      {"measurement": "Plant response rating, Ryegrass, Italian", "setting": "ryegrass, Italian [10]; [24]", "value": 100},
      {"measurement": "Plant response rating, Sedge, Umbrella", "setting": "sedge, umbrella", "value": 100},
      {"measurement": "Plant response rating, Rice", "setting": "rice", "value": 0},
      {"measurement": "Blackgrass plant response rating", "setting": "blackgrass [11]; [23]", "value": 10},
      {"measurement": "Plant response rating, Blackgrass", "setting": "blackgrass [11]; [24]", "value": 60},
      {"measurement": "Plant response rating, Oat, Wild", "setting": "oat, wild [12]; [25]", "value": 90},
      {"measurement": "Plant response rating, Oat, Wild", "setting": "oat, wild [12]; [26]", "value": 90},
      {"measurement": "Plant response rating, Kochia", "setting": "kochia [13]; [25]", "value": 90},
      {"measurement": "Plant response rating, Kochia", "setting": "kochia [13]; [26]", "value": 100},
      {"measurement": "Plant response rating, Barnyardgrass", "setting": "barnyardgrass", "value": 40},
      {"measurement": "Horseweed plant response rating", "setting": "horseweed; [23]", "value": 40},
      {"measurement": "Plant response rating, Horseweed", "setting": "horseweed; [24]", "value": 40},
      {"measurement": "Plant response rating, Foxtail, Giant", "setting": "foxtail, giant [14]; [25]", "value": 100},
      {"measurement": "Plant response rating, Foxtail, Giant", "setting": "foxtail, giant [14]; [26]", "value": 100},
      {"measurement": "Plant response rating, Corn", "setting": "corn [15]; [25]", "value": 0},
      {"measurement": "Plant response rating, Corn", "setting": "corn [15]; [26]", "value": 20},
      {"measurement": "Kochia plant response rating", "setting": "kochia [16]; [23]", "value": 100},
      {"measurement": "Plant response rating, Kochia", "setting": "kochia [16]; [24]", "value": 100},
      {"measurement": "Pigweed, Palmer plant response rating", "setting": "pigweed, palmer [17]; [23]", "value": 100},
      {"measurement": "Plant response rating, Pigweed, Palmer", "setting": "pigweed, palmer [17]; [24]", "value": 90},
      {"measurement": "Wheat plant response rating", "setting": "wheat [18]; [23]", "value": 10},
      {"measurement": "Plant response rating, Wheat", "setting": "wheat [18]; [24]", "value": 40},
      {"measurement": "Goosegrass plant response rating", "setting": "goosegrass [19]; [23]", "value": 70},
      {"measurement": "Plant response rating, Goosegrass", "setting": "goosegrass [19]; [24]", "value": 100},
      {"measurement": "Plant response rating, Ryegrass, Italian", "setting": "ryegrass, Italian [20]; [25]", "value": 100},
      {"measurement": "Plant response rating, Ryegrass, Italian", "setting": "ryegrass, Italian [20]; [26]", "value": 100},
      {"measurement": "Plant response rating, Goosegrass", "setting": "goosegrass [21]; [25]", "value": 100},
      {"measurement": "Plant response rating, Goosegrass", "setting": "goosegrass [21]; [26]", "value": 100},
      {"measurement": "Plant response rating, Pigweed, Palmer", "setting": "pigweed, palmer [22]; [25]", "value": 100},
      {"measurement": "Plant response rating, Pigweed, Palmer", "setting": "pigweed, palmer [22]; [26]", "value": 100},
      {"measurement": "Plant response rating, Ducksalad", "setting": "ducksalad", "value": 30}
    ]}
  ]
}
